# Assay results as given in patent US9695173B2, “Pharmaceutical compositions for the treatment of capillary arteriopathy” (SINOXA PHARMA GMBH, priority 2006, dated 2017).
# Assays:
# Type in all cases: in vivo, rat
# male Sprague-Dawley rats [1] = experiment: Monocrotaline pulmonary hypertension model, treatment from day 14: right ventricular and systemic pressure
# Procedure: (§1) 1 monocrotaline (60 mg/kg; Sigma) was administered to rats on the day of the experiment. For this purpose, the substance was dissolved in 0.5 molar hydrochloric acid and the pH value was then adjusted to 7.4 with 0.5 molar sodium hydroxide solution. The solution was administered to male Sprague-Dawley rats as a single subcutaneous injection in a dose of 60 mg/kg. The same volume of isotonic saline solution was administered to control animals.
# (§2) The dosage specifications in this case relate to the free base of the substances. The substances were used as hydrogenmaleate salt or free base. They were introduced into distilled water in the presence of traces of ascorbic acid and administered by oesophageal tube in the morning and in the evening in a volume of 2 mL. The same quantity of water was administered to control animals.
# (§3) On day 28 of the experiment, 2 hours after the last administration of the substance, the animals were put under general anesthesia using pentobarbital. Then, a tracheostomy was performed on the animals and the animals were respirated at 10 ml/kg and a frequency of […] (SAR830A/P; IITC). Anesthesia was maintained by inhalation of isoflurane.
# The mean arterial pressure and the right ventricular systolic blood pressure were determined. The systemic arterial pressure was measured using a Millar catheter in the left carotid artery. A millar catheter with a pressure sensor (Millar Instruments, model SPR-534) was inserted through the right jugular vein and pushed up to the right ventricle of the heart and used for measuring the right ventricular pressure (RVSP). The signal was amplified by means of a HSE coupler Series 500 and supplied to a registration unit for evaluation.
# male Sprague-Dawley rats [2] = experiment: Monocrotaline pulmonary hypertension model, treatment from day 14: hydroxyproline (collagen) content of the lung; details: monocrotaline 60 mg/kg s.c. day 1; 0.25 mg/kg Lisuride bid or 2.5 mg/kg Terguride bid, days 14-28; right lung day 28; averages ± SEM, N=6
# Procedure: as §1, §2
# After the pressure measurements had been performed, the rats were perfused with physiological saline solution. The right lung was removed, deep-frozen and processed for determining the collagen content. To this end, the tissue was first homogenized and analyzed, drawing on the method by Berg (Meths Enzymol. 82, 372 (1982)). […] The color complex created was measured photometrically at 560 nm and the hydroxprolin content of the samples was determined by means of a calibration curve. […]
# male Sprague-Dawley rats [3] = experiment: Monocrotaline pulmonary hypertension model, treatment days 1-28: RVSP and SAP; details: monocrotaline 60 mg/kg s.c. day 1, 0.4 mg/kg Terguride bid (table), measured day 28, averages ± SD, N=4
# Procedure: as §1
# (§4) […] Terguride was introduced into distilled water in the presence of traces of ascorbic acid and administered by oesophageal tube in the morning and in the evening in a volume of 2 mL. The same quantity of physiological saline solution was administered to control animals.
# as §3
# The mean arterial pressure and the right ventricular systolic blood pressure were determined. The systemic arterial pressure was measured using a Millar catheter in the left carotid artery. […]
# male Sprague-Dawley rats [4] = experiment: Monocrotaline pulmonary hypertension model, treatment days 1-28: right ventricular hypertrophy; details: 0.4 mg/kg Terguride bid (table), dry weights, averages ± SD, N=4
# Procedure: as §1, §4
# After the pressure measurements had been performed, the rats were perfused with physiological saline solution. The heart was removed and prepared by dissection of the right ventricle, the septum as well as the left ventricle of each heart. The tissue preparations were freeze-dried and the dry weights were then determined by weighing out. For each individual animal, the quotient: weight of the right ventricle/weight of the left ventricle and septum (RV/LV+S) was determined from these animals as a measure for right ventricular hypertrophy.
# male Sprague-Dawley rats [5] = experiment: Monocrotaline pulmonary hypertension model, treatment days 1-28: muscularization of arterial capillary vessels of the lung; details: 0.4 mg/kg Terguride bid (table), lung arterial capillary vessels 20-50 μm, averages ± SD, N=4
# Procedure: as §1, §4
# The lungs were removed, fixated in formalin and embedded in paraffin. Paraffin sections were obtained and an immunohistochemical double staining was carried out according to standard protocols. Smooth muscle cells of the vessels were stained with an antibody against actin and the endothelium was stained by means of antibodies against von Willebrand factor. […] The vessels were subdivided into 3 categories: non-muscularized vessels with 20%, partially muscularized vessels with >20%, but <70%, and fully muscularized vessels with >70% lining of the cross-section of the vessel with smooth muscle cells.
# [6] = monocrotaline 60 mg/kg s.c. day 1, 0.25 mg/kg Lisuride bid or 2.5 mg/kg Terguride bid by oesophageal tube, days 14-28, measured day 28, averages ± SEM, N=6
structure (smiles),measurement,setting,value
"CCN(CC)C(=O)N[C@H]1C[C@@H]2c3cccc4[nH]cc(c34)C[C@H]2N(C)C1 [Terguride, (+)-1,1-diethyl-3-(6-methyl-8α-ergolinyl)-urea]",RVPsys (systolic pressure in the right ventricle),male Sprague-Dawley rats [1]; [6],39 ± 3 mmHg
same,SAP (systemic arterial pressure),male Sprague-Dawley rats [1]; [6],111 ± 7 mmHg
same,Hydroxyproline content of the lung,male Sprague-Dawley rats [2],2.7 ± 1.2 ug/g protein
same,RVSP (right ventricular systolic pressure),male Sprague-Dawley rats [3],36.4 ± 3.6 mmHg
same,SAP (systemic arterial pressure),male Sprague-Dawley rats [3],97.5 ± 15.2 mmHg
same,RV/LV + S (weight of right ventricle vs. weight of left ventricle and septum),male Sprague-Dawley rats [4],0.33 ± 0.08
same,Proportion of fully muscularized vessel,male Sprague-Dawley rats [5],21.3 ± 12.6%
same,Proportion of non-muscularized vessel,male Sprague-Dawley rats [5],1.9 ± 1.6%
same,Proportion of partially muscularized vessel,male Sprague-Dawley rats [5],57.8 ± 14.6%
"CCN(CC)C(=O)N[C@H]1C=C2c3cccc4[nH]cc(c34)C[C@H]2N(C)C1 [Lisuride, 3-(9,10-didehydro-6-methylergoline-8alpha-yl)-1,1-diethylurea]",RVPsys (systolic pressure in the right ventricle),male Sprague-Dawley rats [1]; [6],43 ± 7 mmHg
same,Increase in pressure in the right ventricle (in words),"male Sprague-Dawley rats [1]; monocrotaline rats, therapy started 14 days after monocrotaline",reduces
same,Hydroxyproline content of the lung,male Sprague-Dawley rats [2],3.3 ± 0.8 ug/g protein
